These results are taken from paper PMC12457078, “Inhibition of soluble epoxide hydrolase in endotoxin induced pig lung injury” (Frontiers in Pharmacology, 2025).

The target in data set [1] is T1, Recombinant porcine sEH (Sus scrofa, UniProt Q6Q2C2).
T1 construct: made in house
T1 sequence (Q6Q2C2 1-555): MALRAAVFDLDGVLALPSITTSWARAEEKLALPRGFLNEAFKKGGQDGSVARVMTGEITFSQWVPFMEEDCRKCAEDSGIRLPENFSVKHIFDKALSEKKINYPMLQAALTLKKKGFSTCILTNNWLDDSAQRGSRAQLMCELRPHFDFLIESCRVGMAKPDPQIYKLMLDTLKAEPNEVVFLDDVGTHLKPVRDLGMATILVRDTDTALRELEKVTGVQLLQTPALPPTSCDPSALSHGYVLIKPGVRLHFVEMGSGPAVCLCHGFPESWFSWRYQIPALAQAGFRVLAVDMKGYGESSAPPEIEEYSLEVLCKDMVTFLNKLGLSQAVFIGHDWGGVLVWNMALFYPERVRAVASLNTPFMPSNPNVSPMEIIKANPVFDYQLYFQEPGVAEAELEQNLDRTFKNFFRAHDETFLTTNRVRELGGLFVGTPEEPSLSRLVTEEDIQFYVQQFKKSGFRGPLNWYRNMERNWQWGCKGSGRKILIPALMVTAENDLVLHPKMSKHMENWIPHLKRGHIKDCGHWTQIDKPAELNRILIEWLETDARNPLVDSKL
The data set can be described thus: fluorescent activity assay (MNPC substrate), sEH inhibition potency. The format is biochemical, pig.

Data set [2] is described as follows: liver microsomal assay (metabolic stability). The class given is in vitro ADME, pig. Particulars: pig liver microsomes, NADPH generating system, 35 min. The protocol: To further characterize the inhibitors with regard to suitability for administration in pigs, a microsomal assay was used to determine metabolic stability ([Ackley et al., 2004]) for a subset of eight inhibitors chosen for their potency and availability. Microsomal preparations from pig liver were purchased from XenoTech (Kansas City, KS, US). Microsomes, buffer and NADPH generating system were combined, and then the inhibitor was added. The reaction was stopped after 35 min with ice cold acetonitrile containing internal standard (12-[[(cyclohexylamino)carbonyl]amino]-dodecanoic acid). The amount left of parent inhibitor was determined with LC-MS/MS.
(In general: Liver microsomes are vesicles of endoplasmic reticulum, rich in cytochrome P450 enzymes.)

[3] abbreviates: 5 min preincubation 37 °C, MNPC 5 µM, read-out: Pig sEH IC50.

Broadly, the IC50 is the midpoint of a concentration-inhibition curve.

SMILES strings stand for the structures. Like-named read-outs stand apart in the source and are kept apart here.

For `O=C(Nc1ccc(OC(F)(F)F)cc1)N[C@H]1CC[C@@H](Oc2ccc(C(=O)O)cc2)CC1` [Compound 1686], the IC50 in data set [1] (setting [3]) came out at 19 nM.

For the compound `CCC(C)C(=O)N1CCC(NC(=O)Nc2cc(C(F)(F)F)cc(C(F)(F)F)c2)CC1` (centres unmarked) [Compound 2421], the IC50 in data set [1] (setting [3]) was 107 nM.

Regarding `CC(=O)N1CCC(NC(=O)Nc2ccc(OC(F)(F)F)cc2)CC1` [Compound 1555], the half-inhibitory concentration (IC50) in data set [1] was 197 nM.

For `O=C(O)CCCCCCCCCCCNC(=O)Nc1ccc(OC(F)(F)F)cc1` [Compound 1663], in data set [1] (setting [3]), the concentration for half-maximal inhibition (IC50) worked out at 40 nM.

Turning to `O=C(Nc1ccc(OC(F)(F)F)cc1)N[C@H]1CC[C@H](Oc2ccc(C(=O)O)cc2)CC1` [Compound 1728], the IC50 in data set [1] (setting [3]) turned out to be 34 nM. Also, in data set [2], the “Liver microsomal stability: Amount remaining after 35 min (% of initial)” value is listed as 78 ± 3 % of initial.

With `CNc1nc(C)nc(N[C@H]2CCC[C@@H](C(=O)NCc3ccc(C#N)cc3C(F)(F)F)C2)n1` [Compound 2946], in data set [1] (setting [3]), the IC50 turned out to be 48 nM. The “Liver microsomal stability: Amount remaining after 35 min (% of initial)” value in data set [2] is recorded as 66 ± 1 % of initial.

As for `COC(=O)c1ccc(NC(=O)NC23CC4CC(CC(C4)C2)C3)cc1O` [Compound 1671], the half-maximal inhibitory concentration (IC50) in data set [1] (setting [3]) amounted to 5 nM.

Consider `O=C(Nc1cccc2ccccc12)NC1CCCCC1` [Compound 59], for which, in data set [1] (setting [3]), the IC50 amounted to 105 nM.

As to `O=C(O)CCCCCCCCCCCNC(=O)NC12CC3CC(CC(C3)C1)C2` [Compound 700], the “Liver microsomal stability: Amount remaining after 35 min (% of initial)” value in data set [2] is 1 ± 0.1 % of initial.

With `CCC(C)C(=O)N1CCC(NC(=O)Nc2ccc(OC(F)(F)F)cc2)CC1` (centres unmarked) [Compound 2385], the IC50 in data set [1] is 19 nM. For the same compound, in data set [2], the “Liver microsomal stability: Amount remaining after 35 min (% of initial)” value is recorded as 55 ± 3 % of initial.

As to `CCCC(=O)N1CCC(NC(=O)Nc2ccc(C(F)(F)F)cc2)CC1` [Compound 2413], the IC50 in data set [1] (setting [3]) is 60 nM.

Take `CC(C)C(=O)N1CCC(NC(=O)Nc2ccc(C(F)(F)F)cc2)CC1` [Compound 2389]: the IC50 in data set [1] (setting [3]) came out at 70 nM.

For `O=C(Nc1ccc(C(F)(F)F)cc1)NC1CCN(C(=O)CC(F)(F)F)CC1` [Compound 2714], the IC50 in data set [1] (setting [3]) worked out at 44 nM.

As to `CC(C)C(=O)N1CCC(NC(=O)Nc2ccc(OC(F)(F)F)cc2)CC1` [Compound 2422], the IC50 in data set [1] (setting [3]) was 38 nM.
